Measured values published in patent US11965041B2, “N-methylated cyclic peptides and their prodrugs” (TECHNISCHE UNIVERSITAET MUENCHEN, priority 2017, dated 2024).
Entries after “also recorded” stand apart in the source; their conditions may differ. Like-named read-outs stand apart in the source and are kept apart here. Numbered stars: 1 amine (or outer) side, 2 acyl side, 3 side chain; on linkers, the order of the positions; unused ones are H or OH. Square brackets hold non-standard residues; d marks the D form. Peptide text beside a SMILES is read from it. X3 = CCCCCCOC(=O)N=C(NCCC[C@H](C(=O)[*:2])N(C)[*:1])NC(=O)OCCCCCC; X1 = CCCCCCOC(=O)N=C(NCCC[C@@H](N[*:1])C(=O)[*:2])NC(=O)OCCCCCC; X2 = CCCCCCOC(=O)N=C(N)NCCC[C@H](N[*:1])C(=O)[*:2]; dNMeV = CN[C@@H](C(=O)O)C(C)C; NMeA = CN[C@@H](C)C(=O)O

Legend:
[1] = Caco-2 permeability study (Examples 1, 2 and 4, Table 3); assay type: in vitro ADME, human; conditions: for efflux ratio: Table 3; for Papp B→A at 150 min, 10 μg/ml / Papp A→B at 150 min, 10 μg/ml: human
Procedure: The culture growth medium consisted of DMEM supplemented with 10% heat-inactivated FBS, 1% MEM-NEAA, 2 mM 1-glutamine, 1 mM sodium pyruvate, 50,000 units Penicillin G Sodium and 50 mg Streptomycin Sulfate (Biological Industries). The medium was replaced every other day.
Cells (passage 55-60) were seeded at density of 25×10^5 cells/cm^2 on untreated culture inserts of polycarbonate membrane with 0.4 μm pores and surface area of 1.1 cm^2. Culture inserts containing Caco-2 monolayer were placed in 12 mm transwell plates (Corning). Culture medium was replaced every other day. Transepithelial Electrical Resistance (TEER) values were measured by Millicell ERS-2 System (Millipore) a week after seeding up to experiment day (21-23 days) to ensure proliferation and differentiation of the cells. When the cells were fully differentiated and TEER values became stable (200-500 Ω·cm^2). The TEER values were compared to control inserts containing only the medium.
The experiment was initiated by replacing the medium from both sides by apical (600 μl) and basolateral (1500 μl) buffers, both warmed to 37° C. The Cells were incubated with the buffers solutions for 30 min at 37° C. on a shaker (100 cycles/min). The apical buffer was replaced by apical buffer containing 10 μg/ml of the cyclic peptides of the invention. 50 μl samples were taken from the apical side immediately at the beginning of the experiment, resulting in 550 μl apical volume during the experiment.
Permeability Coefficient (Papp) for each compound was calculated from the linear plot of drug accumulated versus time, using the following equation:
Where dq/dt is steady state appearance rate of the compound on the receiver side, Co is the initial concentration of the drug on the donor side, and A is the exposed tissue surface area (1.1 cm^2).
Transport studies were performed through the Caco-2 monolayer mounted in an Ussing-type chamber set-up with continuous trans-epithelial electrical resistance (TEER) measurements to assure TEER between 800 and 1200 Sr cm^2. HBSS supplemented with 10 mM MES and adjusted to pH 6.5 were used as transport medium in the donor compartment and pH 7.4 in the acceptor compartment. The donor solution contained the test compound.
Permeability mechanism of compounds is studied by evaluating the Papp of a compound from the apical to the basolateral (A-to-B) membrane and its Papp from the basolateral to the apical membrane (B-to-A). The A-to-B assay simulates passive and transporter-mediated permeability. The B-to-A assay is essential complementary experiment indicative of the activity of P-gp. The ratio of the A-to-B and B-to A Papps (efflux ratio) is calculated to determine the permeability mechanism.

human αvβ3-integrin = molecular target: T1, human αvβ3-integrin (Homo sapiens, UniProt P05106+P06756); experiment: Solid-phase integrin binding assay, αvβ3
T1 construct: purchased R&D
T1 sequence (P06756 31-992 limits assumed): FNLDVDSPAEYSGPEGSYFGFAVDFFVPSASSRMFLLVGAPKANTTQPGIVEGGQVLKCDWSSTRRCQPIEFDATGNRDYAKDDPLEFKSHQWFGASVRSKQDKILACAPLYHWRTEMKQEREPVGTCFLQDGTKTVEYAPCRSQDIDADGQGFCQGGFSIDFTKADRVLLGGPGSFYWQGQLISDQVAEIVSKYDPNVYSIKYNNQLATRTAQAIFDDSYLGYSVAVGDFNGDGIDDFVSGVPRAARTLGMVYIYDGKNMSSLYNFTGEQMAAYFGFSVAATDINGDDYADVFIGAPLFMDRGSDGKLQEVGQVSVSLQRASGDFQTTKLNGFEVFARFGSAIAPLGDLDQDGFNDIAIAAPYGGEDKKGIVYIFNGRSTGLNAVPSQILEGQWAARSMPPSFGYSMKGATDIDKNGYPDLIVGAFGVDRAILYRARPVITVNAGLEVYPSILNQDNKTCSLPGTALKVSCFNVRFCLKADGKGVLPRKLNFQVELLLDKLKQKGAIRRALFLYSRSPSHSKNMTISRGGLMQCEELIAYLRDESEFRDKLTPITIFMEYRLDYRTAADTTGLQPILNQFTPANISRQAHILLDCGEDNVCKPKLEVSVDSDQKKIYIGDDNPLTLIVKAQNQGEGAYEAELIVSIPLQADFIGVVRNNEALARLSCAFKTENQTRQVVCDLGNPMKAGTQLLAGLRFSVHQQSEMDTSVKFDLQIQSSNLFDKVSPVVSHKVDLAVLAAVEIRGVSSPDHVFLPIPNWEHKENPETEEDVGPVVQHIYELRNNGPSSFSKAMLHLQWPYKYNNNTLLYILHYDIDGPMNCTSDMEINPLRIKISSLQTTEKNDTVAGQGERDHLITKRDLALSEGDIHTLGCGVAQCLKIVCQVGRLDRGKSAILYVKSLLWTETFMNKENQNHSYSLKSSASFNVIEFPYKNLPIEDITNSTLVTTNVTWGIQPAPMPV
T1 sequence (P05106 27-718 limits assumed): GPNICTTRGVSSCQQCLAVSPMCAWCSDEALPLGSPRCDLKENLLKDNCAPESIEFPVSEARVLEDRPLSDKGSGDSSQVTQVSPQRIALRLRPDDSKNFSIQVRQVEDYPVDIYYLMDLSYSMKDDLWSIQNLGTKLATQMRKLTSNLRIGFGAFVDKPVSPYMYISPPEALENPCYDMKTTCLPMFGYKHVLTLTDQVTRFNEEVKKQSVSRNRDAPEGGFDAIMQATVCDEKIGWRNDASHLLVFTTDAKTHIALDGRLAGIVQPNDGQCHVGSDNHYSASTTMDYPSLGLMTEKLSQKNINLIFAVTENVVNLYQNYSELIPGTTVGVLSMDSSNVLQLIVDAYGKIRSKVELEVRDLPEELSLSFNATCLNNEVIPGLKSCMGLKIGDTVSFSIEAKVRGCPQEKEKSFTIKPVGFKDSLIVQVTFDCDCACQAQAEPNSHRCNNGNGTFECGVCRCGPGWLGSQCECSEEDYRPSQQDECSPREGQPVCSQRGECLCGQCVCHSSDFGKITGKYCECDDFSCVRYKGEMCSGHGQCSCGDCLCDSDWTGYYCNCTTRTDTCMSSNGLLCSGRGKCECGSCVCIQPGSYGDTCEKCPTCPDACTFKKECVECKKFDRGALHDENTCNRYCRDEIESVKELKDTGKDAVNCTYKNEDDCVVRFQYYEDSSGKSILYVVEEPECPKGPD

[2] = pH 7.4, LogD
in vitro = conditions: human, Caco-2, pH 7.4
[3] = for Papp A→B: Caco-2, Papp (AB); for Papp B→A: Caco-2, Papp (BA)
[4] = Caco-2 bidirectional permeability with or without verapamil (Example 6); conditions: human, 90 min, without verapamil; for Papp A→B at 90 min, 10 μM: Caco-2, pH 7.4, Papp (AB); for Papp B→A at 90 min, 10 μM: Caco-2, pH 7.4, Papp (BA)
Caco-2 cells = experiment: as above
[5] = Log D, octanol/PBS distribution coefficient; conditions: for logD at 1 h: pH 7.4, LogD
[6] = Pharmacokinetic study in rats after oral administration; assay type: in vivo, Wistar rats; conditions: rat, oral 5 mg/kg; peptide 12 measured in plasma; 12P given as dispersed 12P SNEDDS
Procedure: In Vivo Studies. Male Wistar rats (Harlan, Israel), 275-300 g in weight, were used for all surgical procedures. Animals were anesthetized for the period of surgery by intraperitoneal injection of 1 mL/kg of ketamine/xylazine solution (9:1), placed on a heated surface, and maintained at 37° C. (Harvard Apparatus Inc., Holliston, MA). An indwelling cannula was placed in the right jugular vein of each animal for systemic blood sampling, by a method described before. The cannula was tunneled beneath the skin and exteriorized at the dorsal part of the neck. After completion of the surgical procedure, the animals were transferred to cages to recover overnight (12-18 h). During this recovery period, food but not water was deprived. Throughout the experiment, free access to food was available 4 h post oral administration. Animals were randomly assigned to the different experimental groups. […] Dispersed 12P SNEDDS (5 mg/kg) was administered to the animals by oral gavage (n=3). Systemic blood samples (0.35 mL) were taken at 5 min predose, 20, 40, 60, 90, 180, 240, and 360 min postdose. To prevent dehydration, equal volumes of physiological solution were administered to the rats following each withdrawal of blood sample. Plasma was separated by centrifugation (5322 g, 10 min) and stored at −20° C. pending analysis. In the 12P pharmacokinetic study, the parent peptide, 12, was analytically determined.
Pharmacokinetic Analysis. The area under the plasma concentration-time curve (AUC) was calculated by using the trapezoidal rule with extrapolation to infinity by dividing the last measured concentration by the elimination rate constant (kel). The elimination rate constant values were determined by a linear regression analysis using the last points on the logarithmic plot of the plasma concentration versus the time curve. Pharmacokinetic parameters, such Tmax, Cmax, clearance (CL), volume of distribution (V), and bioavailability, were calculated using noncompartmental analysis.
Analytical Methods. Plasma or BBMV samples were spiked with metoprolol (1.5 μg/mL) as an internal standard. ACN was added to each sample (2:1) and vortex-mixed for 1 min. The samples were then centrifuged (14 635 g, 10 min), and the supernatant was transferred to fresh glass tubes and evaporated to dryness (Vacuum Evaporation System, Labconco, Kansas City, MO, USA). Then, the glass tubes were reconstituted in 80 μL of mobile phase and centrifuged a second time (14 635 g, 10 min). The amount of the compounds was determined using an HPLC-MS Waters 2695 Separation Module, equipped with a Micromass ZQ detector. The resulting solution was injected (10 μL) into the HPLC system. The system was conditioned as follows: for parent drug peptides (including 12), a Kinetex 2.6 μm HILIC 100 Å, 100 mm×2.1 mm column (Phenomenex, Torrance, CA, USA), an isocratic mobile phase, and an acetonitrile:water:ammonium acetate buffer 50 mM (70:10:20, v/v/v) was used; and for the prodrug peptides (including 12P), a Luna (Phenomenex) 3 μm C8 100 Å, 100 mm×2.0 mm column and an isocratic mobile phase of ACN:water supplemented with 0.1% formic acid (70:30, v/v) and a flow rate of 0.2 mL/min at 25° C. was used. The limit of quantification for all of the peptides and prodrugs was 25 ng/mL.
The pharmacokinetic in-vivo study allows a further evaluation of the prodrug concept in the whole animal. The PK studies were performed in conscious Wistar male rats. An indwelling cannula was implanted in the jugular vein 24 hours before the PK experiment to allow full recovery of the animals from the surgical procedure. Animals (n=4) received either an IV bolus dose or oral dose of the investigated compound. Blood samples (with heparin, 15 U/ml) were collected at several time points for up to 6 hours post administration and was assayed by HPLC-MS method. Non-compartmental pharmacokinetic analysis was performed using WinNonlin software.

[7] = Metabolic stability in rat plasma; assay type: in vitro ADME; conditions: 37° C., up to 90 minutes
Procedure: The enzymatic reactions were performed as follows: 2 mM stock solutions of the tested compounds were diluted with serum or purified brush border membrane vesicles (BBMVs) solution to a final concentration of 0.5 mM. During incubation at 37° C. samples were taken for a period of 90 minutes. The enzymatic reaction was stopped by adding 1:1 v/v of ice cold acetonitrile and centrifuge (4000 g, 10 min) before analysis. Preparation of BBMVs: The BBMVs was prepared from combined duodenum, jejunum, and upper ileum (male Wistar rats) by a Ca^++ precipitation method. Purification of the BBMVs was assayed using GGT, LAP and alkaline phosphatase as membrane enzyme markers
Peptides 12 and 12p were subjected to rat plasma and followed their degradation. Rat plasma is known to be rich with esterases.

[8] = Caco-2, Table 3, n = 3, read-out: Papp AB
[9] = Caco-2, Table 3, n = 3, read-out: Papp BA
[10] = pH 7.4, reported value (mean or bound)

## CCCCCCOC(=O)N=C(NCCC[C@H]1NC(=O)[C@H](C)N(C)C(=O)[C@H](C)N(C)C(=O)[C@H](C)NC(=O)[C@H](CC(=O)OC)NC(=O)CNC1=O)NC(=O)OCCCCCC [Peptide 23P, c(r(Hoc)2GD(OMe)A*A*A)] (cyclo(A[NMeA][NMeA][X1]GD(OMe)))
[1]; [8]
  Papp A→B: 1.77 ± 0.55 ×10⁻⁶ cm/s
[1]; [9]
  Papp B→A: 74.8 ± 20.4 ×10⁻⁶ cm/s
[1]; Caco-2
  efflux ratio: 42.2

## C[C@@H]1NC(=O)[C@H](CC(=O)O)NC(=O)CNC(=O)[C@H](CCCNC(=N)N)NC(=O)[C@@H](Cc2ccccc2)N(C)C(=O)[C@H](C)N(C)C1=O [Peptide 30, c(*fRGDA*A)]
Human αvβ3-integrin
  affinity for αvβ3, in words: subnanomolar affinity
Human αvβ3-integrin; Table 1
  IC50: 0.6 ± 0.2 nM

## CCCCCCOC(=O)N=C(NCCC[C@@H]1C(=O)NCC(=O)N[C@@H](CC(=O)OC)C(=O)N[C@@H](C)C(=O)N(C)[C@@H](C)C(=O)N[C@@H](C)C(=O)N1C)NC(=O)OCCCCCC [Peptide 5P, c(*r(Hoc)2GD(OMe)A*AA)] (cyclo(A[NMeA]A[X3]GD(OMe)))
[1]; [9]
  Papp B→A: 22.1 ± 3.58 ×10⁻⁶ cm/s
[1]; Caco-2, running text, unit inferred, read-out: Caco-2 B-to-A Papp
  Papp B→A: 21.2 ×10⁻⁶ cm/s
[1]; Caco-2, unit inferred, read-out: Caco-2 A-to-B Papp (converted)
  Papp A→B: 0.6 ×10⁻⁶ cm/s
[1]; Caco-2
  efflux ratio: 36.7

## CCCCCCOC(=O)N=C(N)NCCC[C@@H]1NC(=O)[C@@H](C(C)C)N(C)C(=O)[C@H](C)N(C)C(=O)[C@H](C)NC(=O)[C@H](CC(=O)OC)NC(=O)CNC1=O [#29P-Hoc] (cyclo(A[NMeA][dNMeV][X2]GD(OMe)))
other
  permeability in the PAMPA-GIT model system: low permeability
[2]; [10]
  logD: 1.85
[2]; pH 7.4, single determinations
  logD: 1.91
In vitro
  efflux ratio at 90 min, 10 µM: 1
[3]; Mean
  Papp A→B: 0.3 ×10⁻⁶ cm/s
  Papp B→A: 0.3 ×10⁻⁶ cm/s
[3]; replicate 1
  Papp A→B: 0.3 ×10⁻⁶ cm/s
  Papp B→A: 0.2 ×10⁻⁶ cm/s
[3]; replicate 2
  Papp A→B: 0.3 ×10⁻⁶ cm/s
  Papp B→A: 0.2 ×10⁻⁶ cm/s
[3]; replicate 3
  Papp A→B: 0.2 ×10⁻⁶ cm/s
  Papp B→A: 0.3 ×10⁻⁶ cm/s

## CC(C)[C@@H]1C(=O)N[C@@H](CCCNC(=N)N)C(=O)NCC(=O)N[C@@H](CC(=O)O)C(=O)N[C@@H](C)C(=O)N(C)[C@@H](C)C(=O)N1C [Peptide 29, c(*vRGDA*A)]
[4]; Mean, 10 μM
  Papp A→B at 90 min, 10 μM: 0.7 ×10⁻⁶ cm/s
  Papp B→A at 90 min, 10 μM: 0.3 ×10⁻⁶ cm/s
[4]; replicate 1, 10 μM
  Papp A→B at 90 min, 10 μM: 1 ×10⁻⁶ cm/s
  Papp B→A at 90 min, 10 μM: 0.3 ×10⁻⁶ cm/s
[4]; replicate 2, 10 μM
  Papp A→B at 90 min, 10 μM: 0.2 ×10⁻⁶ cm/s
  Papp B→A at 90 min, 10 μM: 0.4 ×10⁻⁶ cm/s
[4]; replicate 3, 10 μM
  Papp A→B at 90 min, 10 μM: 0.9 ×10⁻⁶ cm/s
  Papp B→A at 90 min, 10 μM: 0.2 ×10⁻⁶ cm/s
Caco-2 cells; verapamil 100 μM
  Net efflux (Papp (BA) / Papp (AB)), in the presence of Verapamil: 0.1
Caco-2 cells; without verapamil
  Net efflux (Papp (BA) / Papp (AB)): 0.4
Human αvβ3-integrin
  affinity for αvβ3, in words: subnanomolar affinity; also recorded: subnanomolar IC50
[5]; octanol/PBS pH 7.4
  LogD, pH 7.4, reported value (mean or bound): <−1
[5]; pH 7.4, reported value (mean or bound), octanol/PBS pH 7.4
  logD at 1 h: < -1
[5]; pH 7.4, single determinations, octanol/PBS pH 7.4, triplicate values
  logD at 1 h: -1.75
[1]; Caco-2, Table 3, n = 3
  Papp B→A at 150 min, 10 μg/ml: 0.15 ± 0.01 ×10⁻⁶ cm/s
[1]; [8]
  Papp A→B at 150 min, 10 μg/ml: 0.07 ± 0.01 ×10⁻⁶ cm/s

## C[C@@H]1NC(=O)[C@H](CC(=O)O)NC(=O)CNC(=O)[C@@H](CCCNC(=N)N)NC(=O)[C@H](C)N(C)C(=O)[C@H](C)N(C)C1=O [Peptide 23, c(rGDA*A*A)]
[1]; Caco-2, Table 3, n = 3
  Papp B→A at 150 min, 10 μg/ml: 1.34 ± 0.03 ×10⁻⁶ cm/s
[1]; [8]
  Papp A→B at 150 min, 10 μg/ml: 0.61 ± 0.09 ×10⁻⁶ cm/s

## C[C@@H]1NC(=O)[C@H](CC(=O)O)NC(=O)CNC(=O)[C@H](CCCNC(=N)N)NC(=O)[C@@H](C)N(C)C(=O)[C@H](C)N(C)C1=O [Peptide 12, c(*aRGDA*A)]
[6]
  Kel: 0.04 ± 0.005 min⁻¹
[7]
  metabolic stability in rat plasma, in words: remained stable
[1]; Caco-2, Table 3, n = 3
  Papp B→A at 150 min, 10 μg/ml: 0.12 ± 0.01 ×10⁻⁶ cm/s
[1]; [8]
  Papp A→B at 150 min, 10 μg/ml: 0.04 ± 0.02 ×10⁻⁶ cm/s

## CCCCCCOC(=O)N=C(NCCC[C@@H]1NC(=O)[C@H](C(C)C)N(C)C(=O)[C@@H](Cc2ccccc2)NC(=O)[C@H](CC(=O)OC)NC(=O)CNC1=O)NC(=O)OCCCCCC [Cil.-P, c(f*VR(Hoc)2GD)]
PAMPA, pH 7.4
  Permeability, replicate 1: Outlier −8.1 Log10[10^−6 cm/s]
[2]; [10]
  logD: 3.95
[2]; pH 7.4, single determinations
  logD: 3.76
In vitro
  efflux ratio at 90 min, 10 µM: 1.1
[3]; Mean
  Papp A→B: 0.3 ×10⁻⁶ cm/s
  Papp B→A: 0.3 ×10⁻⁶ cm/s
[3]; replicate 1
  Papp A→B: 0.6 ×10⁻⁶ cm/s
  Papp B→A: 0.4 ×10⁻⁶ cm/s
[3]; replicate 2
  Papp A→B: 0.2 ×10⁻⁶ cm/s
  Papp B→A: 0.3 ×10⁻⁶ cm/s
[3]; replicate 3
  Papp A→B: 0.2 ×10⁻⁶ cm/s
  Papp B→A: 0.3 ×10⁻⁶ cm/s

## C[C@@H]1NC(=O)[C@H](C)N(C)C(=O)[C@H](C)NC(=O)[C@H](CC(=O)O)NC(=O)CNC(=O)[C@@H](CCCNC(=N)N)N(C)C1=O [Peptide 5, c(*rGDA*AA)]
[1]; Caco-2, running text, unit inferred, read-out: Caco-2 A-to-B Papp
  Papp A→B at 150 min, 10 μg/ml: 0.3 ×10⁻⁶ cm/s
[1]; Caco-2, Table 3, n = 3
  Papp B→A at 150 min, 10 μg/ml: 0.42 ± 0.11 ×10⁻⁶ cm/s
[1]; [8]
  Papp A→B at 150 min, 10 μg/ml: 0.38 ± 0.01 ×10⁻⁶ cm/s
